Measurements as given in ChEMBL document CHEMBL5537177, “Discovery of Potent Antimalarial Type II Kinase Inhibitors with Selectivity over Human Kinases” (J Med Chem, 2024).

How the values were obtained:
Plasmodium falciparum [1] = assay: Antimalarial activity against Plasmodium falciparum harboring AcAS A597V mutation assessed as reduction in parasitemia incubated for 72 hrs by SYBR green I dye based analysis; format: functional, organism-based
Plasmodium falciparum [2] = assay: Antimalarial activity against Plasmodium falciparum harboring PI4K S1320L mutation assessed as reduction in parasitemia incubated for 72 hrs by SYBR green I dye based analysis; format: functional, organism-based
Plasmodium falciparum [3] = assay: microbe, parasite or virus in culture; details: Dd2, 72 h
Description: Antimalarial activity against wild-type Plasmodium falciparum Dd2 assessed as reduction in parasitemia incubated for 72 hrs by SYBR green I dye based analysis

Plasmodium falciparum [4] = assay: Antimalarial activity against Plasmodium falciparum harboring CARL I1139K mutation assessed as reduction in parasitemia incubated for 72 hrs by SYBR green I dye based analysis; format: functional, organism-based
HepG2 = assay: Cytotoxicity against human HepG2 cells assessed as reduction in cell viability incubated for 48 hrs by MTS assay; format: toxicity, cell-based; details: hepg2
[5] = Metabolic stability in mouse liver microsomes assessed as intrinsic clearance; format: ADME, Liver cells
[6] = Selectivity index, ratio of EC50 for human HepG2 cells to EC50 for multidrug-resistant Plasmodium falciparum Dd2 at ring stage infected in A+ erythrocytes; format: toxicity, cell-based; details: read-out: Ratio EC50
Plasmodium falciparum [7] = assay: Antiplasmodial activity against multidrug-resistant Plasmodium falciparum Dd2 at ring stage infected in A+ erythrocytes assessed as parasite growth reduction incubated for 72 hrs by SYBR Green I dye based analysis; format: functional, organism-based; details: Dd2, Erythrocyte
[8] = Metabolic stability in mouse liver microsomes assessed as half life; format: ADME, Liver cells
MCF7 = assay: Cytotoxicity against human MCF7 cells assessed as reduction in cell viability incubated for 48 hrs by MTS assay; format: toxicity, cell-based; details: mcf7
Plasmodium falciparum [9] = assay: Resistance index, ratio of EC50 for multidrug-resistant Plasmodium falciparum Dd2 at ring stage infected in A+ erythrocytes to EC50 for drug-sensitive Plasmodium falciparum 3D7 at ring stage infected in A+ erythrocytes; format: organism-based; details: human
Plasmodium falciparum [10] = assay: Antiplasmodial activity against drug-sensitive Plasmodium falciparum 3D7 at ring stage infected in A+ erythrocytes assessed as parasite growth reduction incubated for 72 hrs by SYBR Green I dye based analysis; format: functional, organism-based; details: 3D7, Erythrocyte
[11] = Selectivity index, ratio of EC50 for human MCF7 cells to EC50 for multidrug-resistant Plasmodium falciparum Dd2 at ring stage infected in A+ erythrocytes; format: toxicity, cell-based; details: read-out: Ratio EC50

SMILES	EC50 (Plasmodium falciparum [1]) [nM]	EC50 (Plasmodium falciparum [2]) [nM]	EC50 (Plasmodium falciparum [3]) [nM]	EC50 (Plasmodium falciparum [4]) [nM]	EC50 (HepG2) [nM]	intrinsic clearance [5] [µL/min/mg]	selectivity ratio [6]	EC50 (Plasmodium falciparum [7]) [nM]	t1/2 [8] [min]	EC50 (MCF7) [nM]	Ratio EC50 (Plasmodium falciparum [9])	EC50 (Plasmodium falciparum [10]) [nM]	selectivity ratio [11]
C[C@@H]1CC[C@H]2[C@@H](C)C(=O)O[C@@H]3O[C@@]4(C)CC[C@@H]1[C@]32OO4 [ARTEMISININ]	5.1	5.2	2.9	4									
CCN1CCN(Cc2ccc(NC(=O)c3cc(Cl)cc(NC(=O)c4cncc(-c5cccs5)c4)c3)cc2)CC1					8770	11	108	81	65.3	10300	1.1	76	127
CCN1CCN(Cc2ccc(NC(=O)c3cc(NC(=O)c4cncc(-c5cccs5)c4)c(C)cc3F)cc2C(F)(F)F)CC1					4050		2.6	1580		6910	1.1	1460	4.4
O=C(Nc1ccnc(N2CCOCC2)c1)c1cc(Cl)cc(NC(=O)c2cncc(-c3cccs3)c2)c1					> 20000		> 27	739		14700	1.1	700	20
O=C(NNC(=O)c1csnn1)c1ccc(Cl)cc1	> 50000	106	182	174									
CCN1CCN(Cc2ccc(NC(=O)c3ccnc(NC(=O)c4cncc(-c5cccs5)c4)c3)cc2C(F)(F)F)CC1					3030		5.2	579		4610	1.6	356	8
CCN1CCN(Cc2ccc(NC(=O)c3cc(Cl)cc(NC(=O)c4cncc(C#N)c4)c3)cc2C(F)(F)F)CC1					11000		58	191		7580	1	186	40
CCN1CCN(Cc2ccc(NC(=O)c3cc(Cl)cc(NC(=O)c4cncnc4)c3)cc2C(F)(F)F)CC1					17300		33	520		15300	1.3	395	29
CCN1CCN(Cc2ccc(NC(=O)c3cc(Cl)cc(NC(=O)c4cncc(-c5cncs5)c4)c3)cc2C(F)(F)F)CC1					6080	13	109	56	52.1	8140	0.8	74	145
CCN1CCN(Cc2ccc(NC(=O)c3cc(Cl)cc(NC(=O)c4ccccc4)c3)cc2C(F)(F)F)CC1					7240		15	493		6070	1.4	361	12
CCN1CCN(Cc2ccc(C(=O)Nc3cc(Cl)cc(NC(=O)c4cncc(-c5cccs5)c4)c3)cc2C(F)(F)F)CC1					9160		88	104		7030	1.4	73	68
CCN1CCN(Cc2ccc(NC(=O)c3cc(Cl)cc(NC(=O)c4cccc(-c5cccs5)c4)c3)cc2C(F)(F)F)CC1					5460		22	253		8360	1.3	196	33
CCN1CCN(Cc2ccc(NC(=O)c3cc(Cl)cc(NCc4cncc(-c5cccs5)c4)c3)cc2C(F)(F)F)CC1					5590		16	344		8330	1.1	310	24
CCN1CCN(Cc2ccc(NC(=O)c3cc(NC(=O)c4cncc(-c5cccs5)c4)ccc3F)cc2C(F)(F)F)CC1					6710		6.8	981		10800	2	491	11
